Results: ChEMBL document CHEMBL1151587, “Development of new non-peptide GPIIb/IIIa antagonists, NSL-95315 and NSL-95317, isosteres of NSL-95300” (Bioorg Med Chem Lett, 1997)

Species: Homo sapiens
Assay: Concentration required to inhibit collagen-induced platelet aggregation in human platelet rich plasma (PRP)
Type: functional

| Structure (SMILES) | IC50 [nM] |
| --- | --- |
| CC(C)(/C=C/C(O)c1ccc(C(=N)N)cc1)C(=O)N1CCC(CC(=O)O)CC1 (configuration not stated) | 7600 |
| C#CCOC(/C=C/c1ccc(C(=N)N)cc1)C(C)(C)C(=O)N1CCC(CC(=O)O)CC1 (configuration not stated) | 270 |
| COC(/C=C/c1ccc(C(=N)N)cc1)C(C)(C)C(=O)N1CCC(CC(=O)O)CC1 (configuration not stated) | 250 |
| CC(C)(C(=O)/C=C/c1ccc(C(=N)N)cc1)C(=O)N1CCC(CC(=O)O)CC1 | 3500 |
| CCOC(/C=C/c1ccc(C(=N)N)cc1)C(C)(C)C(=O)N1CCC(CC(=O)O)CC1 (configuration not stated) | 260 |
| CC(C)(C(=O)N1CCC(CC(=O)O)CC1)C(O)/C=C/c1ccc(C(=N)N)cc1 (configuration not stated) | 600 |

The next lines start with the values.

| IC50 [nM] | Structure (SMILES) |
| --- | --- |
| 210 | CC(C)(/C=C/C(=O)c1ccc(C(=N)N)cc1)C(=O)N1CCC(CC(=O)O)CC1 |
| 630 | CC(C)(CCC(=O)c1ccc(C(=N)N)cc1)C(=O)N1CCC(CC(=O)O)CC1 |
| 1600 | CCCCCCOC(/C=C/c1ccc(C(=N)N)cc1)C(C)(C)C(=O)N1CCC(CC(=O)O)CC1 (configuration not stated) |
| 600000 | CC(C)(C(=O)N1CCC(CC(=O)O)CC1)/C(O)=C/C(=O)c1ccc(C(=N)N)cc1 |
| 480 | COC(CCc1ccc(C(=N)N)cc1)C(C)(C)C(=O)N1CCC(CC(=O)O)CC1 (configuration not stated) |
| 730 | CC(C)(C(=O)N1CCC(CC(=O)O)CC1)C(/C=C/c1ccc(C(=N)N)cc1)OCc1ccccc1 (configuration not stated) |
